This passage reports relative viability results from the supplement of paper PMC10307832.

Holding throughout (experiment): relative viability (nuclei count vs DMSO), 5 days (fraction); higher = more cells survive
Compound in the test “Erlotinib + Linsitinib”: C#Cc1cccc(Nc2ncnc3cc(OCCOC)c(OCCOC)cc23)c1 [Erlotinib] + C[C@]1(O)C[C@@H](c2nc(-c3ccc4ccc(-c5ccccc5)nc4c3)c3c(N)nccn32)C1 [Linsitinib] (partner 1 µM)
A digest of the protocol:
(§1)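 Each reported value is a median over duplicate plates. It expresses relative viability: treated-well nuclei count divided by vehicle-well nuclei count. Lung cancer cell lines in 1536-well plates were dosed by pin tool a day after seeding, alone with one drug or with a fixed anchor-drug dose plus five library-drug doses (not always all listed) in √10 steps, and nuclei were counted after 5 days.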

Compound in the test “AT9283 + Trametinib”: O=C(Nc1c[nH]nc1-c1nc2ccc(CN3CCOCC3)cc2[nH]1)NC1CC1 [AT9283] + CC(=O)Nc1cccc(-n2c(=O)n(C3CC3)c(=O)c3c(Nc4ccc(I)cc4F)n(C)c(=O)c(C)c32)c1 [Trametinib] (partner 0.02 µM)
A digest of the protocol:
as §1

Compound in the test “Erlotinib + Alpelisib”: C#Cc1cccc(Nc2ncnc3cc(OCCOC)c(OCCOC)cc23)c1 [Erlotinib] + Cc1nc(NC(=O)N2CCC[C@H]2C(N)=O)sc1-c1ccnc(C(C)(C)C(F)(F)F)c1 [Alpelisib] (partner 2 µM)
An outline of the steps:
as §1

Compound in the test “Erlotinib + AZD7762”: C#Cc1cccc(Nc2ncnc3cc(OCCOC)c(OCCOC)cc23)c1 [Erlotinib] + NC(=O)Nc1cc(-c2cccc(F)c2)sc1C(=O)N[C@H]1CCCNC1 [AZD7762] (partner 0.2 µM)
A digest of the protocol:
as §1

Compound in the test “AT9283 + Pemetrexed”: O=C(Nc1c[nH]nc1-c1nc2ccc(CN3CCOCC3)cc2[nH]1)NC1CC1 [AT9283] + Nc1nc2[nH]cc(CCc3ccc(C(=O)N[C@@H](CCC(=O)O)C(=O)O)cc3)c2c(=O)[nH]1 [Pemetrexed] (partner 0.2 µM)
A digest of the protocol: as §1

Turning to LOU-NH91, the relative viability stood at 0.592 with Erlotinib + Linsitinib (first compound 0.02 µM); 0.544 in the test with Erlotinib + Linsitinib (first compound 0.2 µM); 0.487 in the test with Erlotinib + Linsitinib (first compound 0.6325 µM); 0.801 with AT9283 + Trametinib (first compound 0.003 µM); 0.788 with AT9283 + Trametinib (first compound 0.03 µM); 0.536 with AT9283 + Trametinib (first compound 0.09487 µM). Moreover, the relative viability with AT9283 + Trametinib (first compound 0.3 µM) amounted to 0.493; in the test with Erlotinib + Alpelisib (first compound 0.02 µM), 0.539; with Erlotinib + Alpelisib (first compound 0.2 µM) it was 0.495; with Erlotinib + Alpelisib (first compound 0.6325 µM), 0.527; with Erlotinib + Alpelisib (first compound 2 µM), 0.512; in the test with Erlotinib + AZD7762 (first compound 0.02 µM), 0.682. For the same cell line, the relative viability with Erlotinib + AZD7762 (first compound 0.2 µM) was 0.692; in the test with Erlotinib + AZD7762 (first compound 0.6325 µM), 0.769; with Erlotinib + AZD7762 (first compound 2 µM), 0.684; in the test with AT9283 + Pemetrexed (first compound 0.003 µM), 0.406; with AT9283 + Pemetrexed (first compound 0.03 µM) it was 0.385; with AT9283 + Pemetrexed (first compound 0.09487 µM), 0.331. Further, the relative viability with AT9283 + Pemetrexed (first compound 0.3 µM) was 0.351.

As for PC-3 [JPC-3], the relative viability came out at 0.829 in the test with Erlotinib + Linsitinib (first compound 0.02 µM); 0.461 with Erlotinib + Linsitinib (first compound 0.2 µM); 0.423 with Erlotinib + Linsitinib (first compound 0.6325 µM); 0.385 with Erlotinib + Linsitinib (first compound 2 µM); 0.718 with AT9283 + Trametinib (first compound 0.003 µM); 0.672 with AT9283 + Trametinib (first compound 0.03 µM). Also, the relative viability with AT9283 + Trametinib (first compound 0.09487 µM) came to 0.71; with AT9283 + Trametinib (first compound 0.3 µM) it was 0.481; with Erlotinib + Alpelisib (first compound 0.02 µM), 0.799; with Erlotinib + Alpelisib (first compound 0.2 µM) it was 0.368; with Erlotinib + Alpelisib (first compound 0.6325 µM) it was 0.352; with Erlotinib + Alpelisib (first compound 2 µM), 0.323. For the same cell line, the relative viability in the test with Erlotinib + AZD7762 (first compound 0.02 µM) came to 0.639; with Erlotinib + AZD7762 (first compound 0.2 µM) it was 0.522; with Erlotinib + AZD7762 (first compound 0.6325 µM) it was 0.415; with Erlotinib + AZD7762 (first compound 2 µM), 0.356; in the test with AT9283 + Pemetrexed (first compound 0.003 µM), 0.966; with AT9283 + Pemetrexed (first compound 0.03 µM) it was 1.06. Besides, the relative viability in the test with AT9283 + Pemetrexed (first compound 0.09487 µM) came out at 0.717; in the test with AT9283 + Pemetrexed (first compound 0.3 µM), 0.568.

Consider NCI-H1666, for which the relative viability turned out to be 0.82 with Erlotinib + Linsitinib (first compound 0.02 µM); 0.696 with Erlotinib + Linsitinib (first compound 0.2 µM); 0.62 with Erlotinib + Linsitinib (first compound 0.6325 µM); 0.496 in the test with Erlotinib + Linsitinib (first compound 2 µM); 0.852 with AT9283 + Trametinib (first compound 0.003 µM); 0.721 with AT9283 + Trametinib (first compound 0.03 µM). In addition, the relative viability in the test with AT9283 + Trametinib (first compound 0.09487 µM) turned out to be 0.637; with AT9283 + Trametinib (first compound 0.3 µM) it was 0.474; with Erlotinib + Alpelisib (first compound 0.02 µM) it was 0.901; in the test with Erlotinib + Alpelisib (first compound 0.2 µM) it was 0.631; with Erlotinib + Alpelisib (first compound 0.6325 µM), 0.504; with Erlotinib + Alpelisib (first compound 2 µM), 0.348. Also, the relative viability was 0.72 with Erlotinib + AZD7762 (first compound 0.02 µM); 0.834 in the test with Erlotinib + AZD7762 (first compound 0.2 µM); 0.732 with Erlotinib + AZD7762 (first compound 0.6325 µM); 0.633 with Erlotinib + AZD7762 (first compound 2 µM); 0.775 with AT9283 + Pemetrexed (first compound 0.003 µM); 0.818 in the test with AT9283 + Pemetrexed (first compound 0.03 µM). Further, the figures for the relative viability with AT9283 + Pemetrexed (first compound 0.09487 µM) and with AT9283 + Pemetrexed (first compound 0.3 µM) were 0.718 and 0.612, respectively.

As to EPLC-272H, the relative viability in the test with Erlotinib + Linsitinib (first compound 0.02 µM) was 1.11; in the test with Erlotinib + Linsitinib (first compound 0.2 µM), 1.18; in the test with Erlotinib + Linsitinib (first compound 0.6325 µM) it was 1.06; with Erlotinib + Linsitinib (first compound 2 µM), 0.802; with AT9283 + Trametinib (first compound 0.003 µM), 0.285; in the test with AT9283 + Trametinib (first compound 0.03 µM), 0.287. Further, the relative viability with AT9283 + Trametinib (first compound 0.09487 µM) worked out at 0.161; in the test with AT9283 + Trametinib (first compound 0.3 µM), 0.152; with Erlotinib + Alpelisib (first compound 0.02 µM), 1.01; with Erlotinib + Alpelisib (first compound 0.2 µM) it was 0.979; in the test with Erlotinib + Alpelisib (first compound 0.6325 µM), 0.818; in the test with Erlotinib + Alpelisib (first compound 2 µM), 0.679. The relative viability was determined as 0.205 in the test with Erlotinib + AZD7762 (first compound 0.02 µM); 0.209 with Erlotinib + AZD7762 (first compound 0.2 µM); 0.21 with Erlotinib + AZD7762 (first compound 0.6325 µM); 0.202 in the test with Erlotinib + AZD7762 (first compound 2 µM); 0.358 with AT9283 + Pemetrexed (first compound 0.003 µM); 0.212 with AT9283 + Pemetrexed (first compound 0.03 µM). The relative viability with AT9283 + Pemetrexed (first compound 0.09487 µM) is 0.177; in the test with AT9283 + Pemetrexed (first compound 0.3 µM), 0.138.

Turning to HCC-15, the relative viability with Erlotinib + Linsitinib (first compound 0.02 µM) worked out at 0.927; in the test with Erlotinib + Linsitinib (first compound 0.2 µM), 0.922; in the test with Erlotinib + Linsitinib (first compound 0.6325 µM), 1; with AT9283 + Trametinib (first compound 0.003 µM) it was 0.377; with AT9283 + Trametinib (first compound 0.03 µM) it was 0.381; with AT9283 + Trametinib (first compound 0.09487 µM), 0.178. In addition, the relative viability with AT9283 + Trametinib (first compound 0.3 µM) came out at 0.149; with Erlotinib + Alpelisib (first compound 0.02 µM), 0.897; with Erlotinib + Alpelisib (first compound 0.2 µM), 0.844; with Erlotinib + Alpelisib (first compound 0.6325 µM), 0.913; with Erlotinib + Alpelisib (first compound 2 µM), 0.77; in the test with Erlotinib + AZD7762 (first compound 0.02 µM), 1.34. Besides, the relative viability in the test with Erlotinib + AZD7762 (first compound 0.2 µM) is 1.25; in the test with Erlotinib + AZD7762 (first compound 0.6325 µM), 1.31; in the test with Erlotinib + AZD7762 (first compound 2 µM) it was 1.07; with AT9283 + Pemetrexed (first compound 0.003 µM), 0.223; with AT9283 + Pemetrexed (first compound 0.03 µM), 0.208; in the test with AT9283 + Pemetrexed (first compound 0.09487 µM) it was 0.143. For the same cell line, the relative viability in the test with AT9283 + Pemetrexed (first compound 0.3 µM) was 0.159.

Regarding NCI-H1792, the relative viability with Erlotinib + Linsitinib (first compound 0.02 µM) came out at 0.466; with Erlotinib + Linsitinib (first compound 0.2 µM), 0.405; with Erlotinib + Linsitinib (first compound 0.6325 µM), 0.525; with Erlotinib + Linsitinib (first compound 2 µM), 0.432; in the test with AT9283 + Trametinib (first compound 0.003 µM) it was 0.315; in the test with AT9283 + Trametinib (first compound 0.03 µM), 0.376. In addition, the relative viability with AT9283 + Trametinib (first compound 0.09487 µM) amounted to 0.509; in the test with AT9283 + Trametinib (first compound 0.3 µM), 0.258; in the test with Erlotinib + Alpelisib (first compound 0.2 µM) it was 0.595; in the test with Erlotinib + Alpelisib (first compound 0.6325 µM), 0.77; with Erlotinib + Alpelisib (first compound 2 µM), 0.49; with Erlotinib + AZD7762 (first compound 0.02 µM) it was 0.904. The relative viability with Erlotinib + AZD7762 (first compound 0.2 µM) is 0.465; with Erlotinib + AZD7762 (first compound 0.6325 µM), 0.6; in the test with Erlotinib + AZD7762 (first compound 2 µM), 0.469; in the test with AT9283 + Pemetrexed (first compound 0.003 µM), 0.783; with AT9283 + Pemetrexed (first compound 0.03 µM) it was 0.945; with AT9283 + Pemetrexed (first compound 0.09487 µM), 0.805. For the same cell line, in the test with AT9283 + Pemetrexed (first compound 0.3 µM), the relative viability worked out at 0.167.
